Test results: patent US9932340B2, “Substituted indoles” (AbbVie Inc., priority 2014, dated 2018)

molecular target: SUV420H1 enzyme (Homo sapiens, UniProt Q4FZB7); assay: TR-FRET SAH SUV420H1 enzyme inhibition assay; format: biochemical; settings: Histone Peptide H4(8-30)me1 and SAM, overnight at room temp, TR-FRET detection of SAH, read-out: TR-FRET SAH_SUV420H1 IC50
Method in brief: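 SUV420H1 (90 nM) preincubated 30 min with compound (3-fold dilutions, 50 to 0.00075 μM), then H4(8-30)me1 peptide 5 nM and SAM 4 nM added, overnight at room temp. SAH product detected by TR-FRET with Tb anti-SAH antibody and Oregon Green-SAH in RIPA buffer, 4 h; IC50 from Hill fit, asymptotes fixed 0-100%.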

SUV420H1 enzyme, sequence (Q4FZB7 whole entry): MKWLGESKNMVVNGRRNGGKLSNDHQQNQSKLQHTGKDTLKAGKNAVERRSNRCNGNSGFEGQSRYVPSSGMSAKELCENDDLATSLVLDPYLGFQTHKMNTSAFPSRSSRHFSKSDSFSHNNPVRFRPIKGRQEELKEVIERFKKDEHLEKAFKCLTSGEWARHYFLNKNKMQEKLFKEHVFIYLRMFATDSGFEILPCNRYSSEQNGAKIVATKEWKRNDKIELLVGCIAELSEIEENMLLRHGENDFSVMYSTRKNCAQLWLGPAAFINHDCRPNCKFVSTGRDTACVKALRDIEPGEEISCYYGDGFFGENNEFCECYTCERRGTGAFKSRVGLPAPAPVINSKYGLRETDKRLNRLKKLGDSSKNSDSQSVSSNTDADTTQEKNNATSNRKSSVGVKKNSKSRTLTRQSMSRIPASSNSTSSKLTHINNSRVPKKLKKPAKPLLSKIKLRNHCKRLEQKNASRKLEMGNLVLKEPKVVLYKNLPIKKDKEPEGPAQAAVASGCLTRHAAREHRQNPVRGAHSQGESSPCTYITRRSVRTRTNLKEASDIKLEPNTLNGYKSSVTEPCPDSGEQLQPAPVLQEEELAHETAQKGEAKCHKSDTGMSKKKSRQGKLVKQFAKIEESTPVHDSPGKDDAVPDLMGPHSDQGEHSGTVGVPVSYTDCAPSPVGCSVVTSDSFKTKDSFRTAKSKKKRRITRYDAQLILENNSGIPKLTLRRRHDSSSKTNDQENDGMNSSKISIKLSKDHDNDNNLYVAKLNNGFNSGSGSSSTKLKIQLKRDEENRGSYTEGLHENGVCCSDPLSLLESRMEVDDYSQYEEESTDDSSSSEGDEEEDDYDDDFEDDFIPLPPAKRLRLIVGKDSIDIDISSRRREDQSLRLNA

SMILES	IC50
CS(=O)(=O)c1ccc(C(=O)NCc2cc3cc(Cl)cc(Cn4cnc5c(N)ncnc54)c3[nH]2)c(Cl)c1 [Example 266, N-({7-[(6-amino-9H-purin-9-yl)methyl]-5-chloro-1H-indol-2-yl}methyl)-2-chloro-4-(methylsulfonyl)benzamide]	0.911 µM
Nc1ncnc2c1ncn2Cc1cc(Cl)cc2cc(CNC(=O)c3ccn[nH]3)[nH]c12 [Example 142, N-({7-[(6-amino-9H-purin-9-yl)methyl]-5-chloro-1H-indol-2-yl}methyl)-1H-pyrazole-5-carboxamide]	9.48 µM
CCN(CC)Cc1cc2cc(Cl)cc(Cn3cnc4c(N)ncnc43)c2[nH]1 [Example 97, 9-({5-chloro-2-[(diethylamino)methyl]-1H-indol-7-yl}methyl)-9H-purin-6-amine]	11.4 µM
Cc1onc(-c2ccccc2)c1C(=O)NCc1cc2cc(Cl)cc(Cn3cnc4c(N)ncnc43)c2[nH]1 [Example 326, N-({7-[(6-amino-9H-purin-9-yl)methyl]-5-chloro-1H-indol-2-yl}methyl)-5-methyl-3-phenyl-1,2-oxazole-4-carboxamide]	6.2 µM
Nc1ncnc2c1ncn2Cc1cc(Cl)cc2cc(CNC(=O)c3ccc(Cl)cc3)[nH]c12 [Example 221, N-({7-[(6-amino-9H-purin-9-yl)methyl]-5-chloro-1H-indol-2-yl}methyl)-4-chlorobenzamide]	6.24 µM
Nc1ncnc2c1ncn2Cc1cccc2c(Br)c[nH]c12 [Example 1, 9-[(3-bromo-1H-indol-7-yl)methyl]-9H-purin-6-amine]	> 50 µM
Nc1ncnc2c1ncn2Cc1cc(Cl)cc2cc(CNC(=O)c3ccccc3OC3CCOCC3)[nH]c12 [Example 321, N-({7-[(6-amino-9H-purin-9-yl)methyl]-5-chloro-1H-indol-2-yl}methyl)-2-(tetrahydro-2H-pyran-4-yloxy)benzamide]	8.22 µM
Cc1noc(C)c1C(=O)NCc1cc2cc(-c3ccc(CC#N)cc3)cc(Cn3cnc4c(N)ncnc43)c2[nH]1 [Example 175, N-({7-[(6-amino-9H-purin-9-yl)methyl]-5-[4-(cyanomethyl)phenyl]-1H-indol-2-yl}methyl)-3,5-dimethyl-1,2-oxazole-4-carboxamide]	0.0828 µM
Nc1ncnc2c1ncn2Cc1cc(Cl)cc2cc(CNC(=O)[C@H]3CCC(=O)N3)[nH]c12 [Example 118, (2R)—N-({7-[(6-amino-9H-purin-9-yl)methyl]-5-chloro-1H-indol-2-yl}methyl)-5-oxopyrrolidine-2-carboxamide]	18.4 µM
Cc1nc(C)c(C(=O)NCc2cc3cc(Cl)cc(Cn4cnc5c(N)ncnc54)c3[nH]2)s1 [Example 161, N-({7-[(6-amino-9H-purin-9-yl)methyl]-5-chloro-1H-indol-2-yl}methyl)-2,4-dimethyl-1,3-thiazole-5-carboxamide]	0.856 µM
CC1CC1C(=O)NCc1cc2cc(Cl)cc(Cn3cnc4c(N)ncnc43)c2[nH]1 (centres unmarked) [Example 109, N-({7-[(6-amino-9H-purin-9-yl)methyl]-5-chloro-1H-indol-2-yl}methyl)-2-methylcyclopropanecarboxamide]	10.6 µM
Nc1ncnc2c1ncn2Cc1cc(Cl)cc2cc(CNC(=O)c3ccc(F)cc3)[nH]c12 [Example 223, N-({7-[(6-amino-9H-purin-9-yl)methyl]-5-chloro-1H-indol-2-yl}methyl)-4-fluorobenzamide]	8.25 µM
Nc1ncnc2c1ncn2Cc1cc(Cl)cc2cc(CNC(=O)c3ccccc3C(=O)N3CCCC3)[nH]c12 [Example 320, N-({7-[(6-amino-9H-purin-9-yl)methyl]-5-chloro-1H-indol-2-yl}methyl)-2-(pyrrolidin-1-ylcarbonyl)benzamide]	8.03 µM
Nc1ncnc2c1ncn2Cc1cc(Cl)cc2cc(CNCc3cccc(CN4CCCCC4)c3)[nH]c12 [Example 323, 9-{[5-chloro-2-({[3-(piperidin-1-ylmethyl)benzyl]amino}methyl)-1H-indol-7-yl]methyl}-9H-purin-6-amine]	0.345 µM
Nc1ncnc2c1ncn2Cc1cc(Cl)cc2cc(CNC(=O)[C@H]3CCCN3)[nH]c12 [Example 116, (2R)—N-({7-[(6-amino-9H-purin-9-yl)methyl]-5-chloro-1H-indol-2-yl}methyl)pyrrolidine-2-carboxamide]	8.28 µM
CS(=O)(=O)c1ccccc1C(=O)NCc1cc2cc(Cl)cc(Cn3cnc4c(N)ncnc43)c2[nH]1 [Example 265, N-({7-[(6-amino-9H-purin-9-yl)methyl]-5-chloro-1H-indol-2-yl}methyl)-2-(methylsulfonyl)benzamide]	2.14 µM
Nc1ncnc2c1ncn2Cc1cc(Cl)cc2cc(CNCc3ccccc3Br)[nH]c12 [Example 208, 9-[(2-{[(2-bromobenzyl)amino]methyl}-5-chloro-1H-indol-7-yl)methyl]-9H-purin-6-amine]	1.89 µM
N#Cc1ccc(C(=O)NCc2cc3cc(Cl)cc(Cn4cnc5c(N)ncnc54)c3[nH]2)c(Cl)c1 [Example 276, N-({7-[(6-amino-9H-purin-9-yl)methyl]-5-chloro-1H-indol-2-yl}methyl)-2-chloro-4-cyanobenzamide]	0.039 µM
Cc1nnccc1C(=O)NCc1cc2cc(C3=CCN(S(C)(=O)=O)CC3)cc(Cn3cnc4c(N)ncnc43)c2[nH]1 [Example 202, N-({7-[(6-amino-9H-purin-9-yl)methyl]-5-[1-(methylsulfonyl)-1,2,3,6-tetrahydropyridin-4-yl]-1H-indol-2-yl}methyl)-3-methylpyridazine-4-carboxamide]	0.0641 µM
Nc1ncnc2c1ncn2Cc1cc(Cl)cc2cc(CNC(=O)c3ccc4[nH]nnc4c3)[nH]c12 [Example 331, N-({7-[(6-amino-9H-purin-9-yl)methyl]-5-chloro-1H-indol-2-yl}methyl)-1H-benzotriazole-6-carboxamide]	2.58 µM
C=C(C)c1ccc(Cn2cnc3c(N)ncnc32)c2[nH]c(CN)cc12 [Example 65, 9-{[2-(aminomethyl)-4-(prop-1-en-2-yl)-1H-indol-7-yl]methyl}-9H-purin-6-amine]	5.08 µM
CC(C)c1ccc(Cn2cnc3c(N)ncnc32)c2[nH]c(CN)cc12 [Example 66, 9-{[2-(aminomethyl)-4-(propan-2-yl)-1H-indol-7-yl]methyl}-9H-purin-6-amine]	4.29 µM
Nc1ncnc2c1ncn2Cc1cc(Cl)cc2cc(CN3CCS(=O)(=O)CC3)[nH]c12 [Example 125, 9-({5-chloro-2-[(1,1-dioxidothiomorpholin-4-yl)methyl]-1H-indol-7-yl}methyl)-9H-purin-6-amine]	4.62 µM
Nc1ncnc2c1ncn2Cc1cc(Cl)cc2cc(CNC(=O)[C@@H]3CCC(=O)N3)[nH]c12 [Example 117, (2S)—N-({7-[(6-amino-9H-purin-9-yl)methyl]-5-chloro-1H-indol-2-yl}methyl)-5-oxopyrrolidine-2-carboxamide]	14.1 µM
Nc1ncnc2c1ncn2Cc1cc(Cl)cc2cc(CNC(=O)C3CCOCC3)[nH]c12 [Example 126, N-({7-[(6-amino-9H-purin-9-yl)methyl]-5-chloro-1H-indol-2-yl}methyl)tetrahydro-2H-pyran-4-carboxamide]	2.23 µM
CC1CCCC(C(=O)NCc2cc3cc(Cl)cc(Cn4cnc5c(N)ncnc54)c3[nH]2)C1 (centres unmarked) [Example 131, N-({7-[(6-amino-9H-purin-9-yl)methyl]-5-chloro-1H-indol-2-yl}methyl)-3-methylcyclohexanecarboxamide]	3.23 µM
